One data set deals with BEAS-2B cells. It counts as cell-based, human. The settings on record: BNPP (CES1 inhibitor) up to 20 μM co-incubated with 10 μM ProTide.
The nature of data set [1]: Prodrug hydrolysis in human intestine S9 fractions. Type of data set: in vitro ADME. Conditions: 15 min incubation.
Data set [2] can be described thus: Prodrug hydrolysis in human liver S9 fractions. Type of data set: in vitro ADME. Conditions: 15 min incubation.
A short description of data set [3]: Plasma PK after oral administration in Ces1c−/− mice. Conditions: 54.4 μmole/kg.
For data set [4], the target named is recombinant human CatA (rhCatA) (Homo sapiens, UniProt P10619). Description: Hydrolysis of ProTides by recombinant human CatA. Type of data set: biochemical. Conditions: 20 μM prodrug, 0.5 ng/μL rhCatA, 10 min, MES buffer pH 5.5, 37 °C, n = 3.
Data set [5] concerns the target T1, recombinant human CES1 (rhCES1) (Homo sapiens, UniProt P23141).
T1 sequence (P23141 18-567): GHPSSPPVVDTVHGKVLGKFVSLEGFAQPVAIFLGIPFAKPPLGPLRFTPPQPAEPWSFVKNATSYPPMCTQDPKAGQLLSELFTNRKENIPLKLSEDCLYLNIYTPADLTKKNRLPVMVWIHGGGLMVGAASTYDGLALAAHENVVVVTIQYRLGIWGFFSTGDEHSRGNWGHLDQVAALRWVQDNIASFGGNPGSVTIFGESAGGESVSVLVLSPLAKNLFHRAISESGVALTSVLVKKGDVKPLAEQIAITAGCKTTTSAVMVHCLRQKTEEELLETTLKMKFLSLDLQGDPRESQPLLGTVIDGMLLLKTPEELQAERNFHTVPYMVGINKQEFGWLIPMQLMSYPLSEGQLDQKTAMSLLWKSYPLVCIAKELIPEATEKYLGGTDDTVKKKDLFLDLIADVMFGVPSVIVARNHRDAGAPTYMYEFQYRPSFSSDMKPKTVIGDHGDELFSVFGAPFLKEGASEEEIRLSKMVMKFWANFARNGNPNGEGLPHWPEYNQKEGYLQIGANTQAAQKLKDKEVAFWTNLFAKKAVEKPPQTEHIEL
Kind of data set: Hydrolysis of ProTides by recombinant human CES1. It counts as biochemical. Conditions: 20 μM prodrug, 40 ng/μL rhCES1, 20 min, Tris buffer pH 7.5, 37 °C, n = 3.

For data set [6] the following is noted: cited from earlier work.
The conditions of data set [7]: cited from earlier work. The source holds these as a separate data set.
Data set [8] is described as follows: Ex vivo human plasma stability. Conditions: 10 μM, 37 °C, 4 hours.
Data set [9] is described as follows: Plasma PK after IV administration. Conditions: for AUC(0-inf) / AUC(0-t) / Cmax / Vd / half-life / concentration at 15 min: male, mouse, plasma, iv; for AUC(0-inf) / AUC(0-t) / Cmax / Vd / half-life: Ces1c−/− (JAX stock # 014096).
For data set [10] the following is noted: 24 h, 10 μM.
For data set [11] the following is noted: male, Ces1c−/− (Ces1c knockout), in vivo, iv.
The test system of data set [12] is human bronchial epithelial cells. Conditions: within 48 hours after drug treatment; cited from earlier work.
A further data set deals with VeroE6 cells. The settings on record: read-out: 50% cytotoxic concentration (CC50); cited from earlier work.
The subject of the next data set is iPSC-AT2. Conditions: read-out: 50% cytotoxic concentration (CC50); cited from earlier work.
In the next data set the test system is lung virus titers. The settings on record: 2 days post infection, cited from earlier work.
The conditions of data set [13]: wild-type mice; cited from earlier work.
The conditions of data set [14]: cited from earlier work. This is another data set of the same source.
Where [15] appears, read: IV bolus, 54.4 μmole/kg, Ces1c−/− mice.

Each structure is given as a SMILES string. Like-named read-outs stand apart in the source and are kept apart here.

One may read the logD as the decadic logarithm of the distribution of all forms, ionised or not, between an organic phase and buffer at a given pH. The term AUC(0-inf) denotes the area under the concentration-time curve extrapolated to infinity. A higher AUC(0-inf) goes with more exposure. A word on the AUC(0-t): it is exposure summed from dosing to a finite time, without extrapolation to infinity. The term Cmax denotes the maximum level reached in the sampled fluid or tissue. Broadly, the Vd is the apparent volume that relates the amount in the body to the concentration in plasma or blood. Low values mean confinement near the circulation, high ones extensive tissue distribution. The term half-life denotes the time in which the quantity being followed falls by half. Read a high half-life as slow decline.

Chain of recombinant human CatA (rhCatA) (P10619 327-480): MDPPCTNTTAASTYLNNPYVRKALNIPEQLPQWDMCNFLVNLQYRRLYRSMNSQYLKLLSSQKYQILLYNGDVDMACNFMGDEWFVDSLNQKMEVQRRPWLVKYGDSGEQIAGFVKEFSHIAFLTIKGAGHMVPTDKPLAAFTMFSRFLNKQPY
Chain of recombinant human CatA (rhCatA) (P10619 29-326): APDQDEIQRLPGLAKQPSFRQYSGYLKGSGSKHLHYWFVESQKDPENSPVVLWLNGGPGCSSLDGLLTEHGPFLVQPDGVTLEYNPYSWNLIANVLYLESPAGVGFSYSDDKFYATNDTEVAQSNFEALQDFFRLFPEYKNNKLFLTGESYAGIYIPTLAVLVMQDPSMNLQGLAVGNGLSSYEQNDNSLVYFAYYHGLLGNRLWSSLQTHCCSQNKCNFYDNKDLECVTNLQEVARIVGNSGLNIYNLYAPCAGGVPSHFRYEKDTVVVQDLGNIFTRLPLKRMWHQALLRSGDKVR

Take `O=[N+]([O-])c1ccc(OP(=O)(O)Oc2ccc([N+](=O)[O-])cc2)cc1` [BNPP, Bis-(p-nitrophenyl) phosphate]: the “Effect of inhibitor on the formation of RDV-TP” value with BEAS-2B cells is on record as “did not significantly alter”.

For `CC(C)C(=O)OC[C@H]1O[C@@](C#N)(c2ccc3c(N)ncnn23)[C@H](OC(=O)C(C)C)[C@@H]1OC(=O)C(C)C` [GS-621763], in [1], the “Prodrug remaining in human intestine homogenate” value is listed as “could barely be detected”. The “Prodrug remaining in human liver homogenate” value in data set [2] is “could barely be detected”. Also, in [3], the “Prodrug form in plasma after oral administration” value (“Prodrug form in plasma” below) is recorded as “barely detected”.

With `CC(C)OC(=O)[C@H](C)N[P@](=O)(OC[C@H]1O[C@@](C#N)(c2ccc3c(N)ncnn23)[C@H](O)[C@@H]1O)Oc1ccccc1` [IsoRDV], the “Activity of rhCatA for prodrug hydrolysis” value in data set [4] stood at 236.7 ± 172.8 pmol/min/μg protein. Further, the “Activity of rhCES1 for prodrug hydrolysis” value in data set [5] is reported as 7.7 ± 1.4 pmol/min/μg protein. For the same compound, the “Stability in human plasma” value in data set [6] was 1561 min. Also, the logD in [7] is reported as 1.1. For the same compound, the “Hydrolyzed in human plasma” value in data set [8] was ~15%. In data set [3], the “Oral bioavailability (estimated)” value is given as “less than 2%” and the “Prodrug form in plasma” value is on record as “barely detected”. In addition, in data set [9] (setting [15]), the “AUC0-∞ of the administered compound in plasma” value was 4,950.3 ± 628.2 h⋅nM, the “CL/F of the administered compound” value worked out at 0.28 ± 0.03 L⋅h^−1, the “Vd (apparent distribution volume)” value stood at 0.42 ± 0.17 L and the “t1/2 of the administered compound in plasma” value is 1.04 ± 0.33 h. Moreover, the “AUC0-t of the administered compound in plasma” value in data set [9] (IV bolus, 54.4 μmole/kg, Ces1c−/− mice, AUC0-t(8h)) is recorded as 4,941.6 ± 626.4 h⋅nM.

In the case of `N#C[C@@]1(c2ccc3c(N)ncnn23)O[C@H](CO)[C@@H](O)[C@H]1O` [Nuc], in data set [10], the “Reduction after incubation with human plasma” value was found to be 5%. Also, the “RDV-TP concentrations in the mouse lung relative to estimated EC50/EC90” value in [11] is recorded as “constantly below EC50”. Moreover, in data set [12], the “RDV-TP levels, fold lower than RDV” value was “at least 40 fold”. The “CL/F of the administered compound” value in [9] (setting [15]) is listed as 0.052 ± 0.002 L⋅h^−1. In addition, in data set [9] (54.4 μmole/kg), the AUC(0-inf) turned out to be 26.3 µM·h, the exposure AUC(0-t) turned out to be 25.1 µM·h, the Cmax was determined as 18.1 µM and the Vd was found to be 0.47 ± 0.29 L. In data set [9] (54.4 μmole/kg), this compound showed a half-life of 6.34 ± 4.01 h and a concentration at 15 min of 18.1 µM.

Turning to `CCC(CC)COC(=O)[C@H](C)N[P@](=O)(OC[C@H]1O[C@@](C#N)(c2ccc3c(N)ncnn23)[C@H](O)[C@@H]1O)Oc1ccccc1` [RDV, remdesivir], the “Activity of rhCatA for prodrug hydrolysis” value in [4] is given as 1,786.5 ± 179.2 pmol/min/μg protein. In addition, the “Activity of rhCES1 for prodrug hydrolysis” value in [5] was determined as 15.5 ± 1.8 pmol/min/μg protein. Also, the CC50 in the data set with VeroE6 cells was 101 µM. In the data set with iPSC-AT2, the CC50 was 32.7 µM. Moreover, the “Effect on lung virus titers” value in the data set with lung virus titers (25 mg/kg twice daily) is “significantly reduced the lung virus titers”. Besides, the “Effect on lung virus titers” value in the data set on lung virus titers (50 mg/kg single dose daily) is “could not”. In addition, in data set [6], the “Half-life in human plasma” value is 1.15 h, the “Half-life in human plasma ex vivo” value is 1.15 h and the “Stability in human plasma” value is reported as 69 min. Besides, the “Plasma half-life in mice” value in [13] is < 5 min. For the same compound, the “Plasma half-life in Ces1c−/− mice” value in [14] is given as ~ 25 min. In data set [8], the “Hydrolyzed in human plasma” value is recorded as “approximately 70%”. Besides, in [3], the “Prodrug form in plasma” value is recorded as “barely detected”. In [9] (setting [15]), the “CL/F of the administered compound” value is recorded as 1.06 ± 0.44 L⋅h^−1 and the “Presence in plasma 4 hours after IV administration” value was “barely detectable”. In [9] (54.4 μmole/kg), the AUC(0-inf) stood at 1.58 µM·h, the area under the curve AUC(0-t) came to 1.57 µM·h, the Cmax amounted to 1.37 µM and the distribution volume (Vd) is 1.91 ± 0.94 L. Besides, in [9] (54.4 μmole/kg), the half-life was 1.25 ± 0.39 h and the concentration at 15 min amounted to 1.37 µM. In addition, the “Portion of plasma RDV that disappeared” value in data set [9] (within 30 minutes after IV administration) was “about 90%”.
